According to patent US20220081435A1, “ANDROGEN RECEPTOR PROTEIN DEGRADERS” (THE REGENTS OF THE UNIVERSITY OF MICHIGAN, priority 2019, published 2022):

Experiments:
AR protein = target: T1, AR protein (Homo sapiens, UniProt P10275); experiment: AR protein degradation in VCaP cells (Western blotting); type: cell-based
T1 construct: host or cells: VCaP
T1 sequence (P10275 1-920): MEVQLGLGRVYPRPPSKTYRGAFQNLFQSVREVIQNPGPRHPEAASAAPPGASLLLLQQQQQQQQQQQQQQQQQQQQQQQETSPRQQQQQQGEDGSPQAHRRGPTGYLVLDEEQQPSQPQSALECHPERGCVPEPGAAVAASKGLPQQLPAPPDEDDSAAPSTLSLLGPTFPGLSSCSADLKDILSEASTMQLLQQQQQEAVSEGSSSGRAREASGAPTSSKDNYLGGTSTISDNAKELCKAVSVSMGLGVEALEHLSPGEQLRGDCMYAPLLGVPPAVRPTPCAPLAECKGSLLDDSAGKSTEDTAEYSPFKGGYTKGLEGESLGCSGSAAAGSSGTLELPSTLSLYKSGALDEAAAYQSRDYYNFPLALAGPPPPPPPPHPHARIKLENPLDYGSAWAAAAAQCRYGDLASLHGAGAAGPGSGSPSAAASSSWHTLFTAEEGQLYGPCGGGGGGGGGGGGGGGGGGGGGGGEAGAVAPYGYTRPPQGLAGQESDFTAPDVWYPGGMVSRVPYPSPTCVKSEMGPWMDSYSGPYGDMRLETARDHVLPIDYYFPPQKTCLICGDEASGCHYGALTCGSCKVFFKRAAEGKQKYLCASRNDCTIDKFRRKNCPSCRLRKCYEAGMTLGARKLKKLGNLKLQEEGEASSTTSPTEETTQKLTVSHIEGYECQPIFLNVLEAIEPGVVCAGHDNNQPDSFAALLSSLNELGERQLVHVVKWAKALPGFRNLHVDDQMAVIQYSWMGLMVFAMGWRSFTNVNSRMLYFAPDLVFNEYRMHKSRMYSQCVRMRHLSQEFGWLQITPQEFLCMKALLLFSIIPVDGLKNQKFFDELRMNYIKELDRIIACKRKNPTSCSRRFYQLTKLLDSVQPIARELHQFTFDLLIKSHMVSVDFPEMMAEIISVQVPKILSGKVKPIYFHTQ
Method: Cell lines and Cell Culture: All the LNCaP, VCaP and 22RV1 cells used were purchased from American Type Culture Collection (ATCC). LNCaP and 22RV1 cells were grown in RPMI 1640 (Invitrogen), VCaP cells were grown in DMEM with Glutamax (Invitrogen). All of the cells were supplemented with 10% fetal bovine serum (Invitrogen) at 37° C. in a humidified 5% CO2 incubator.
Western Blotting. Treated cells were lysed by RIPA buffer supplemented with protease and phosphatase inhibitors. The cell lysates were separated by 4-12% SDS-PAGE gels and blotted into PVDF membranes. Software ImageJ was used to quantify the percentage of AR degradation. The net protein bands and loading controls are calculated by deducting the background from the inverted band value. The final relative quantification values are the ratio of net band to net loading control.

[1] = target: T2, AR protein in VCaP xenograft tumor tissue (Homo sapiens, UniProt P10275); experiment: Pharmacodynamics in VCaP xenograft tumor tissue in mice (immunoblotting); type: in vivo; details: SCID mice, single dose 50 mg/kg IP
T2 construct: resected control and treated VCaP xenograft tumor tissues were ground into powder in liquid nitrogen and lysed; from tissue; host or cells: VCaP xenograft tumor tissue from SCID mice
T2 sequence (P10275 1-920): T1 sequence (P10275 1-920)
Method: FIG. 9 is an image of an immunoblotting analysis of a pharmacodynamics (PD) study of AR degrader 34 (ARD-69) in VCaP tumor tissue in mice. SCID mice bearing xenograft VCaP tumors were treated with a single dose of 34 (ARD-69) (IP, 50 mg/kg). Tumor tissues were harvested at the indicated time points for immunoblotting.
Pharmacodynamics Studies in the VCaP Xenograft Models in Mice. All animal experiments were performed under the guidelines of the University of Michigan Committee for Use and Care of Animals and using an approved animal protocol (PI, Shaomeng Wang). Xenograft tumors were established by injecting 5×10^6 VCaP cells in 50% Matrigel subcutaneously on the dorsal side of severe combined immunodeficient (SCID) mice, obtained from Charles River, one tumor per mouse. When tumors reached ˜100 mm^3, mice were randomly assigned to treatment and vehicle control groups. Animals were monitored daily for any signs of toxicity and weighed 2-3 times per week during the treatment period and at least weekly after the treatment ended. For pharmacodynamics analysis, resected control and treated VCaP xenograft tumor tissues were ground into powder in liquid nitrogen and lysed in CST lysis buffer with halt proteinase inhibitors. Twenty micrograms of whole tumor clarified lysates were separated on 4-20% or 4-12% Novex gels. Western blots were performed as detailed in the previous section.

[2] = tested on: AR-regulated gene expression (PSA, TMPRSS2, FKBP5, ERG); experiment: Suppression of AR-regulated gene expression in VCaP cells (qRT-PCR); type: cell-based
Method: (§1) Quantitative Real-Time Polymerase Chain Reaction (qRT-PCR). Real-time PCR was performed using QuantStudio 7 Flex Real-Time PCR System as described previously.^43,44 RNA was purified using the Qiagen RNase-Free DNase set, then after quantification, the extracted RNA was converted to cDNA using High Capacity RNA-to-cDNA Kit from Applied Biosystems (Thermo Fisher Scientific). The levels of AR, TMPRSS2, FKBP5, PSA(KLK3) and GAPDH were quantified using TaqMan Fast Advanced Master Mix from Applied Biosystems. The level of gene expression was evaluated using comparative CT method, which compares the CT value to GAPDH (ACT) and then to vehicle control (ΔΔCT).

[3] = tested on: AR-regulated gene expression (PSA, TMPRSS2, FKBP5); experiment: Suppression of AR-regulated gene expression in LNCaP cells (qRT-PCR); type: cell-based
Method: as §1

**Q.** How did the AR degradation (AR protein; 10 nM, 24 h treatment) turn out when `Cc1ncsc1-c1ccc([C@H](CC(=O)N2CCC(N3CCC(C#Cc4ccc(C(=O)NC5C(C)(C)C(Oc6ccc(C#N)c(Cl)c6)C5(C)C)cc4)CC3)CC2)NC(=O)[C@@H]2C[C@@H](O)CN2C(=O)[C@@H](NC(=O)C2(F)CC2)C(C)(C)C)cc1` (stereo partly drawn) [Compound 34, (2S,4R)—N—((S)-3-(4-((4-(((1r,3r)-3-(3-Chloro-4-cyanophenoxy)-2,2,4,4-tetramethyl-cyclobutyl)carbamoyl)phenyl)ethynyl)-[1,4′-bipiperidin]-1′-yl)-1-(4-(4-methylthiazol-5-yl)phenyl)-3-oxopropyl)-1-((S)-2-(1-fluorocyclopropane-1-carboxamido)-3,3-dimethylbutanoyl)-4-hydroxypyrrolidine-2-carboxamide] was run?
**A.** > 95%

**Q.** And the “Time to effective reduction of AR protein level” value (AR protein; 100 nM)?
**A.** ≤ 2 h

**Q.** What about the “AR depletion with a 4 h treatment” value (AR protein; 100 nM, 4 h) of the same compound?
**A.** near-complete AR depletion

**Q.** And the DC50 (AR protein; 24 h treatment, read-out: DC50 (drug concentration that results in 50% protein degradation))?
**A.** 0.76 nM

**Q.** And the “AR degradation after pretreatment with AR antagonist (6), VHL-d, MLN4924 or MG132” value (AR protein; data not shown)?
**A.** effectively blocked

**Q.** And the “Persistence of AR protein reduction” value [1]?
**A.** at least 48 h

**Q.** What about the “Persistence of PSA protein reduction” value [1] of the same compound?
**A.** 24 to 48 h

**Q.** What about the “Level of PSA protein in tumor tissue” value ([1]; at the 3 h time-point) of the same compound?
**A.** effectively reduced

**Q.** And the “Level of AR protein in tumor tissue” value ([1]; starting at 3 h)?
**A.** effectively reduced

**Q.** And the “Potency relative to AR antagonist 6 in suppressing AR-regulated gene transcription” value [2]?
**A.** > 100 times

**Q.** And the “Reduction of mRNA level of both PSA and TMPRSS2 genes” value ([2]; 10 nM)?
**A.** > 50%

**Q.** And the ERG gene expression ([2]; dose-dependent)?
**A.** suppresses

**Q.** And the “Expression of PSA, TMPRSS2 and FKBP5 genes” value ([2]; dose-dependent, data not shown)?
**A.** effectively suppressed

**Q.** And the “Potency relative to AR antagonist 6 in suppressing AR-regulated gene transcription” value [3]?
**A.** > 100 times

**Q.** And the “Reduction of mRNA level of both PSA and TMPRSS2 genes” value ([3]; 10 nM)?
**A.** > 50%

**Q.** What about the “Expression of PSA, TMPRSS2 and FKBP5 genes” value ([3]; dose-dependent, data not shown) of the same compound?
**A.** effectively suppressed
